Measured values reported in PMC8761912, “Cryptosporidium parvum Pyruvate Kinase Inhibitors With in vivo Anti-cryptosporidial Efficacy” (Frontiers in Microbiology, 2022).
Entries after “also recorded” stand apart in the source; their conditions may differ. Where two headings read alike, the source gives them in different places.

Experiments:
[1] = test system: C. parvum; experiment: In vivo efficacy in C. parvum-infected IFN-γ KO mice, fecal oocysts load by qPCR; set-up: species or system Cryptosporidium parvum; conditions: for relative potency among the treatments (oocysts load): 2.5 mg/kg NSC638080, NSC303244, NSC252172, 5 mg/kg NSC234945, paromomycin 1,000 mg/kg; for reduction in oocysts load compared to untreated mice / oocysts load compared to untreated mice: 10 mg/kg oral once daily; for reduction in oocysts load compared to untreated mice: day 9 PI; for oocysts load compared to untreated mice / potency, fold higher than paromomycin (1,000 mg/kg): day 10 PI; for potency, fold higher than paromomycin (1,000 mg/kg): 10 mg/kg
Protocol: (§1) Eight weeks old male interferon-gamma knockout (IFN-γ KO) mice (B6.129S7-Ifng^TM1Ts/J) were purchased from The Jackson Laboratory, United States, and allowed to quarantine and acclimatize for 1 week before the commencement of experiments. Before the start of the infection assays in mice, the tolerability of each inhibitor was determined by daily oral gavage with varying dosages (0–10 mg/kg mouse bodyweight) in groups of mice (n = 3 mice per group) for 8 days. During this period, mice were monitored daily for any changes in physical and mental activity, feeding, body weight, body temperature, fur condition, and body posture. […] Mice were divided into infected and uninfected groups (n = 3 mice per group) and each individual mouse was housed in a separate cage lined with sterile gauze bedding. Each mouse from the infected group was infected by oral gavage administration of 10^4 C. parvum AUCP-1 isolate oocysts suspended in 50 μl of PBS. Beginning day 3 PI, groups of mice were orally treated with CpPyK inhibitors (at the specified doses), sham (100 μl of 5% DMSO in PBS), or 1,000 mg/kg paromomycin (in sterile water) once daily for a total of 8 days. Fecal pellets were collected daily in individual sterile 15 ml tubes, and submerged in an equivalent volume of PBS containing a cocktail of penicillin (100 units/ml), streptomycin (100 μg/ml), chloramphenicol (34 μg/ml), and amphotericin (0.25 μg/ml), and stored at 4°C until use. Three independent replicate infection assays were performed. Mice were sacrificed at day 11 PI, and 5 cm of the distal small intestine just anterior to the cecum was resected and submerged in 10% neutral buffered formalin and submitted for histopathological processing in the Comparative Biosciences Histology Laboratory at the University of Illinois at Urbana-Champaign. Briefly, intestinal tissues preserved in 10% neutral buffered formalin were washed in 70% ethanol, embedded in paraffin, and sectioned transversely at a thickness of 5 μm. Sections were stained with hematoxylin and eosin. The slides were imaged using a Zeiss microscope fitted with a color camera.
DNA was isolated from 250 mg of feces collected from individual mice using the QIAamp® PowerFecal® Pro DNA kit (Qiagen, United States) following the manufacturer’s protocol. Oocysts load per gram of feces was measured by quantitative real time PCR (qPCR) analysis of the Cp18s rRNA gene (GenBank accession number AF164102) using gene-specific primers: 5′-[…]-3′ (Forward) and 5′-[…]-3′ (Reverse), described previously ([Parr et al., 2007]). To generate a quantification standard curve, fecal samples were obtained from uninfected mice and spiked with 10^8 C. parvum oocysts per gram of feces, followed by isolation of DNA as described above. Ten-fold serial dilutions of the extracted DNA were made and used as quantification standards for qPCR. C. parvum oocysts load quantification for the test mice was performed using DNA samples from the infected feces. Each 20 μl qPCR reaction contained 10 μl of PowerUp™ SYBR™ Green Master Mix (Applied Biosystems, United States), 500 nM of each primer, and 2 μl of DNA template. After 2 min of initial denaturation at 95°C, 40 cycles of denaturation at 95°C for 15 sec and annealing/extension at 60°C for 1 min were performed in a 7500 Real-Time PCR System (Applied Biosystems, United States). The oocyst load per gram of feces was derived by the 7500-system software using the generated quantification standard curves (Supplementary Figure 1).

[2] = molecular target: recombinant CpPyK (rCpPyK) protein (Cryptosporidium parvum, UniProt Q5CSM7); experiment: rCpPyK enzymatic activity inhibition assay (ATP detection, Cell Titer-Glo luminescence); type: biochemical
Protocol: The in vitro enzymatic activity of the rCpPyK protein was determined by quantitating the amount of ATP produced by the transfer of a phosphate group from phosphoenolpyruvate to adenosine diphosphate (ADP) in the presence of varying concentrations of the recombinant protein (Figure 1A). A typical assay contained 0.5 mM phosphoenolpyruvate, 0.6 mM ADP, 50 mM Tris buffer pH 7.5, 60 mM MgSO4, 100 mM KCl, and varying concentrations of rCpPyK incubated for 3 h at room temperature. The ATP generated was detected in a reaction volume of 50 μl in white opaque-walled 96 well plates by the luciferase-based Cell Titer-Glo 2.0 reagent (Promega) following the manufacturer’s instructions. The enzyme kinetics of rCpPyK were determined by using varying phosphoenolpyruvate (0–8 mM) and ADP (0–2 mM) concentrations in an enzymatic reaction catalyzed by a fixed concentration of the recombinant protein (6 ng/μl). In all assays, reaction mixtures without rCpPyK were included as negative controls. Three independent assays were performed for each experiment, and samples were run in triplicate. The luminescence generated was recorded using a multi-mode microplate reader (Spectra Max iD3; Molecular Devices, United States). GraphPad PRISM® v8 software was used to fit the Michaelis–Menten model directly to the substrate-velocity data to determine the enzymatic kinetic parameters for rCpPyK.
The Diversity Set VI chemical library (Supplementary Table 1) was obtained from the National Cancer Institute (NCI)/Developmental Therapeutics Program (DTP) Open Repository collection of chemical compounds.^1 Compounds were individually reconstituted in molecular biology grade dimethyl sulfoxide (DMSO) from Sigma-Aldrich and stored at −20°C. From the library, 1,424 compounds were screened in 96-well plates using the rCpPyK catalyzed enzyme assay to identify potential CpPyK inhibitors. The reactions were performed in 50 μl reaction volume containing 0.5 mM phosphoenolpyruvate, 0.6 mM ADP, 50 mM Tris buffer pH 7.5, 60 mM MgSO4, 100 mM KCl, and 6 ng/μl of rCpPyK protein with or without compound. The concentration of DMSO in all reaction mixtures was 1% (v/v). Control reactions without rCpPyK protein were included for background subtraction. Following 3 h of incubation at room temperature, an equal volume of the Cell Titer-Glo 2.0 reagent was added to each well, and the luminescence produced was recorded as relative luminescence units (RLU) after 10 min of incubation using a multi-mode microplate reader (Spectra Max iD3; Molecular Devices, United States). The mean percent inhibition (MPI) of rCpPyK activity by each compound was derived by dividing the difference in luminescence (RLU) between the compound-treated wells and the DMSO-treated wells by the luminescence of the DMSO-treated wells and multiplying the product by 100:
(1) MPI=[(MeanRLUDMSO-treated-MeanRLUCompound-treated)÷MeanRLUDMSO-treated]×100.
Half maximal inhibitory concentration (IC50) values were determined by applying a non-linear regression analysis curve fit to the mean dose-response data for varying concentrations of each compound using GraphPad PRISM® v8. Reactions were performed in triplicate and repeated at least thrice.

[3] = test system: C. parvum; experiment: Histopathology of distal small intestine of C. parvum-infected IFN-γ KO mice; type: in vivo, Cryptosporidium parvum; conditions: sacrificed day 11 PI
Protocol: as §1

[4] = Solubility; type: physicochemical; conditions: DMSO
[5] = 2.5 mg/kg oral once daily from day 3 PI for 8 days
[6] = 6 ng/μl rCpPyK, 3 h at room temperature, read-out: Enzyme inhibition IC50
[7] = 2.5 mg/kg daily oral from day 3 PI
[8] = 10 mg/kg daily oral from day 3 PI

Chain of recombinant CpPyK (rCpPyK) protein (Q5CSM7 entry or part of it): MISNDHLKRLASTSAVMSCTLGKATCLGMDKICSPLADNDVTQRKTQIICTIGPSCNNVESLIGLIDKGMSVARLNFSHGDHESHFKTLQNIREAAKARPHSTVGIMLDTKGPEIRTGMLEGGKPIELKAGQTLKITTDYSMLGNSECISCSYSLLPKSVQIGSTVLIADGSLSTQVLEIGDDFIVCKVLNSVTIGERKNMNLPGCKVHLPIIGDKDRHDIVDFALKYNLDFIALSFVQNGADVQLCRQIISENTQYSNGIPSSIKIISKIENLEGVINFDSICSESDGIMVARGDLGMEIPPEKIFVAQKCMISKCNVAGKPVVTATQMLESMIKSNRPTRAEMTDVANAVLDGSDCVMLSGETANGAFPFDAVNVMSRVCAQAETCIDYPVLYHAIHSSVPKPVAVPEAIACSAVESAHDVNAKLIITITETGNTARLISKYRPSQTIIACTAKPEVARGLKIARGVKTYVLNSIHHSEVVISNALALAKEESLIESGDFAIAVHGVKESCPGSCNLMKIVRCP

Structure (SMILES) | relative potency among the treatments (oocysts load) [1] | load of C. parvum oocysts shed in feces [1, 5] | IC50 [2, 6] [µM] | intestinal pathology (histology, distal small intestine) [3, 7] | reduction in oocysts load compared to untreated mice [1] | oocysts load compared to untreated mice [1] | potency, fold higher than paromomycin (1,000 mg/kg) [1] | intestinal pathology (histology, distal small intestine) [3, 8] | oocysts load by day 9 PI vs other treatments and untreated group ([1]; 5 mg/kg oral once daily from day 3 PI) | load of C. parvum oocysts shed in feces ([1]; 5 mg/kg oral once daily from day 3 PI for 8 days) | IC50 [2] [µM] | solubility in DMSO [4]
N#C/C(=C\c1cc(O)c(O)c(O)c1)C(N)=O [NSC638080, (E)-2-cyano-3-(3,4,5-trihydroxyphenyl)prop-2-enamide] | least efficacy | significant reduction | 97.1 | reduced intestinal pathology | – | – | – | – | – | – | – | –
CCOc1ccc(/C=C2\CCc3ccccc3C2=O)cc1 [NSC252172, (2E)-2-[(4-ethoxyphenyl)methylidene]-3,4-dihydronaphthalen-1-one] | – | significant reduction | 123 | – | about threefold reduction in oocysts load | about ninefold lower oocysts load | about 2.5 fold | notably reduced pathological changes | – | – | – | –
Cc1cc2c(c(C#N)c1C)NC=NC2C (stereo not shown) [NSC303244, 4,6,7-trimethyl-1,4-dihydroquinazoline-8-carbonitrile] | – | significant reduction | 243 | reduced intestinal pathology | – | – | – | – | – | – | – | –
c1ccc(-c2nnc(-c3ccccn3)[nH]2)nc1 [NSC234945, 2-(3-pyridin-2-yl-1H-1,2,4-triazol-5-yl)pyridine] | highest potency | – | – | – | about threefold reduction in oocysts load | about ninefold lower oocysts load | about 2.5 fold | best efficacy; also recorded: notably reduced pathological changes | significantly (P < 0.05) lower oocysts loads | significant reduction | 235 | high solubility in DMSO
